Laboratory results from PMC2847018 (Biochemical pharmacology, 2010).
“Also recorded” adds a separate entry of the source. Where a name gives a salt, the structure may show the parent alone. Read-outs that look alike come from different tables or passages of the source.

Columns and labels:
[1] = system: placental carbonyl-reducing enzymes (human placental microsomes); format: biochemical; settings: bupropion 40 μM, pooled placental microsomes, 40 min 37°C; for effect on formation of threo- and erythrohydrobupropion: inhibitor 500 μM
[2] = Kinetics of bupropion reduction by human placental microsomes; format: in vitro ADME; settings: Mean±S.D. of HPM 1-6
[3] = system: placental carbonyl-reducing enzymes (human placental microsomes); assay: Type of inhibition and Ki of 18β-GA on bupropion reduction; format: biochemical; settings: Lineweaver-Burk plot: apparent Km increased, Vmax not affected
11β-HSD1 = 11β-HSD1 ref 44; cited from earlier work

**Q.** Which “effect on formation of threo- and erythrohydrobupropion” value (“effect on formation” below) [1] does the source give for `Cc1cn[nH]c1` [4-methylpyrazole] here?
**A.** Its value is “did not inhibit”.

**Q.** Which “inhibition of formation of threo- and erythrohydrobupropion” value ([1]; inhibitor 100 μM) does the source give for `CC1=CC(=O)c2ccccc2C1=O` [menadione] here?
**A.** The value was 70%.

**Q.** For `CCC1(CC)C(=O)NC(=O)NC1=O` [barbital], which “effect on formation” value [1] is on record?
**A.** The value was “did not inhibit”.

**Q.** For `O=C(O)c1ccccc1Nc1cccc(C(F)(F)F)c1` [flufenamic acid], which “inhibition of formation of threo- and erythrohydrobupropion” value ([1]; inhibitor 4 μM) is on record?
**A.** Its value is 50%.

**Q.** Which “Vmax, erythrohydrobupropion formation” value [2] does the source give for `CC(NC(C)(C)C)C(=O)c1cccc(Cl)c1` (stereo not shown) [bupropion, Bupropion hydrochloride] here?
**A.** The value was 3.1±1.2 picomoles per minute per milligram of protein.

**Q.** What about the “Vmax, threohydrobupropion formation” value [2] of the same compound?
**A.** Its value is 18.6±6.1 picomoles per minute per milligram of protein.

**Q.** What does the source list for `CC1(C)[C@@H](O)CC[C@]2(C)[C@H]3C(=O)C=C4[C@@H]5C[C@@](C)(C(=O)O)CC[C@]5(C)CC[C@@]4(C)[C@]3(C)CC[C@@H]12` [18β-GA, 18β-glycyrrhetinic acid]?
**A.** inhibition of formation of threo- and erythrohydrobupropion ([1]; inhibitor 0.1 μM): 80%; type of inhibition of bupropion reduction [3]: competitive; IC50 (11β-HSD1): […]

**Q.** For `O=c1oc2ccccc2c(O)c1Cc1c(O)c2ccccc2oc1=O` [dicumarol], which “effect on formation” value [1] is on record?
**A.** Its value is “did not inhibit; also recorded: did not affect”.
